US6846670B2, “Genetically engineered herpes virus for the treatment of cardiovascular disease” (priority 2000, dated 2005)

How the values were obtained:
[1] = system: established HSV-1 infection; assay: Eradication of established R849 infection with Acyclovir in rabbit vein patch; format: in vivo
Description: (§1) Its mechanism of action is believed to include penetration intracellularly, conversion initially to the monophosphate by viral thymidine kinases, then to the diphosphate by cellular guanylate kinase and, finally, to the triphosphate by various other cellular enzymes. Fully active Acyclovir triphosphate competes with the natural substrate, deoxyguanosine triphosphate, for a position in the DNA chain of the herpes virus. Once incorporated, it terminates DNA synthesis via (1) competitive inhibition of viral DNA polymerase, (2) incorporation into, and termination of, the growing viral DNA chain, and (3) inactivation of the viral DNA polymerase. Uninfected cells show only minimal uptake and phosphorylation of Acyclovir. The HSV strains used in this example retain tk activity and are thus highly susceptible to neutralization by Acyclovir. To test whether an established HSV-1 infection could be eradicated after completion of the desired therapeutic effect (of the recombinant HSV) in vivo, a rabbit model was used. […] Baseline serum Acyclovir, electrolyte, blood urea nitrogen, and creatinine levels were measured before initiation of Acyclovir treatment, on days 2, 5, and 10 after initiation of treatment, and at sacrifice. […]

[2] = system: human umbilical vein endothelial cells (HUVECs); assay: MTT assay of HUVEC viability following viral exposure; format: cell-based
Description: To determine the appropriate dose for vascular gene transfer, human umbilical vein endothelial cells (HUVECs) were contacted with graded concentrations of HSV-1 for 120 min and viability was assessed using a standard 72 hr MTT assay, as described below.
Human umbilical vein endothelial cells (HUVECs; BioWhittaker/Clonetics) were suspended in complete medium EBM-2 (BioWhittaker #CC3 156) and singlequots of EGM-2 (#CC4176) and grown to 100% confluence in P75 flasks in a 37° C. incubator with humidified 5% CO2 For the passage of cells, all reagent pack contents (HBSS, Trypsin/EDTA, TNS; BioWhittaker CC-5034) were thawed in a 37° C. water bath and exhausted media was removed and discarded. HUVECs were washed with enough HBSS to cover them, trypsin/EDTA was added, and flasks were gently agitated under an inverted microscope. […]
A modified colorimetric assay based on the selective ability of living cells to reduce the yellow salt MTT (3-[4,5-dimethylthiozol-2-yl]-2,5 diphenyl tetrazolium bromide; Sigma Chemical Co.) to formazan was used to quantitate HUVEC viability following viral exposure. […] The formazan crystals were then dissolved in 0.1 ml DMSO (Sigma) and the absorbance measured at 515 nm using a microplate spectrophotometer (SpectraMax 340 004) interfaced with a personal computer (Apple Macintosh). This process was repeated after 72 hours and relative cell survival was calculated. […]

[3] = Serum Acyclovir level and serum chemistry during Acyclovir therapy; format: in vivo, rabbit
Description: as §1

[4] = system: umbilical artery smooth muscle cells (UASMCs); assay: MTT assay of UASMC viability following viral exposure and Acyclovir rescue; format: cell-based, human; conditions: UASMCs infected with R849 MOI=25, even with 10 μg/ml Acyclovir
Description: A modified colorimetric assay based on the selective ability of living cells to reduce the yellow salt MTT (3-[4,5-dimethylthiozol-2-yl]-2,5 diphenyl tetrazolium bromide; Sigma Chemical Co.) to formazan was used to quantitate HUVEC and UASMC viability following viral exposure and rescue with Acyclovir (Abbott Laboratories).

In the case of `Nc1nc2c(ncn2COCCO)c(=O)[nH]1` [Acyclovir, 12-amino-1,9-dihydro-9-[(2-hydroxy-ethoxy)methyl]-6H-purin-6-one], the “cells with β-galactosidase activity after Acyclovir treatment” value ([1]; R849 4×10^8 pfu/ml vein patch, Acyclovir 75 mg/kg iv five days from week 1 plus oral, harvest at four weeks) is reported as < 1%, the “patency of treated vein patches after eradication of R849 infection” value ([1]; four weeks) is reported as “remained widely patent” and the “relative 72 hr cell survival with Acyclovir” value ([2]; HUVECs infected with R849 MOI=25, Acyclovir 0.25 μg/ml) is reported as 45±5%. The “relative 72 hr cell survival with Acyclovir” value ([2]; HUVECs infected with R849 MOI=25, Acyclovir 0.5 μg/ml) was 85±9%, the “serum levels of Acyclovir” value ([3]; during Acyclovir therapy, rabbits) was 9 ± 4 µg/mL and the “systemic toxicity by serum electrolytes, blood urea nitrogen and creatinine” value ([3]; throughout the study, rabbits with R849-infected patches on Acyclovir) was “no significant systemic toxicity”. The “rescue of infected cells with Acyclovir” value [4] was “could not be rescued”.
